Measurements taken from BindingDB's records for doi:10.1016/j.chembiol.2015.10.013 (Pfizer, 2015).

Assays:
[1] = target: T1, Bromodomain-containing protein 4 (Homo sapiens, UniProt O60885); assay: BRD4 Fluorescence Polarization (FP)
CREB-binding protein [2] = target: T2, CREB-binding protein (Homo sapiens, UniProt Q92793); assay: CBP Fluorescence Resonance Energy Transfer (FRET)
[3] = target: T1, Bromodomain-containing protein 4; assay: ITC
CREB-binding protein [4] = target: T2, CREB-binding protein; assay: ITC

T2 sequence (Q92793 whole entry): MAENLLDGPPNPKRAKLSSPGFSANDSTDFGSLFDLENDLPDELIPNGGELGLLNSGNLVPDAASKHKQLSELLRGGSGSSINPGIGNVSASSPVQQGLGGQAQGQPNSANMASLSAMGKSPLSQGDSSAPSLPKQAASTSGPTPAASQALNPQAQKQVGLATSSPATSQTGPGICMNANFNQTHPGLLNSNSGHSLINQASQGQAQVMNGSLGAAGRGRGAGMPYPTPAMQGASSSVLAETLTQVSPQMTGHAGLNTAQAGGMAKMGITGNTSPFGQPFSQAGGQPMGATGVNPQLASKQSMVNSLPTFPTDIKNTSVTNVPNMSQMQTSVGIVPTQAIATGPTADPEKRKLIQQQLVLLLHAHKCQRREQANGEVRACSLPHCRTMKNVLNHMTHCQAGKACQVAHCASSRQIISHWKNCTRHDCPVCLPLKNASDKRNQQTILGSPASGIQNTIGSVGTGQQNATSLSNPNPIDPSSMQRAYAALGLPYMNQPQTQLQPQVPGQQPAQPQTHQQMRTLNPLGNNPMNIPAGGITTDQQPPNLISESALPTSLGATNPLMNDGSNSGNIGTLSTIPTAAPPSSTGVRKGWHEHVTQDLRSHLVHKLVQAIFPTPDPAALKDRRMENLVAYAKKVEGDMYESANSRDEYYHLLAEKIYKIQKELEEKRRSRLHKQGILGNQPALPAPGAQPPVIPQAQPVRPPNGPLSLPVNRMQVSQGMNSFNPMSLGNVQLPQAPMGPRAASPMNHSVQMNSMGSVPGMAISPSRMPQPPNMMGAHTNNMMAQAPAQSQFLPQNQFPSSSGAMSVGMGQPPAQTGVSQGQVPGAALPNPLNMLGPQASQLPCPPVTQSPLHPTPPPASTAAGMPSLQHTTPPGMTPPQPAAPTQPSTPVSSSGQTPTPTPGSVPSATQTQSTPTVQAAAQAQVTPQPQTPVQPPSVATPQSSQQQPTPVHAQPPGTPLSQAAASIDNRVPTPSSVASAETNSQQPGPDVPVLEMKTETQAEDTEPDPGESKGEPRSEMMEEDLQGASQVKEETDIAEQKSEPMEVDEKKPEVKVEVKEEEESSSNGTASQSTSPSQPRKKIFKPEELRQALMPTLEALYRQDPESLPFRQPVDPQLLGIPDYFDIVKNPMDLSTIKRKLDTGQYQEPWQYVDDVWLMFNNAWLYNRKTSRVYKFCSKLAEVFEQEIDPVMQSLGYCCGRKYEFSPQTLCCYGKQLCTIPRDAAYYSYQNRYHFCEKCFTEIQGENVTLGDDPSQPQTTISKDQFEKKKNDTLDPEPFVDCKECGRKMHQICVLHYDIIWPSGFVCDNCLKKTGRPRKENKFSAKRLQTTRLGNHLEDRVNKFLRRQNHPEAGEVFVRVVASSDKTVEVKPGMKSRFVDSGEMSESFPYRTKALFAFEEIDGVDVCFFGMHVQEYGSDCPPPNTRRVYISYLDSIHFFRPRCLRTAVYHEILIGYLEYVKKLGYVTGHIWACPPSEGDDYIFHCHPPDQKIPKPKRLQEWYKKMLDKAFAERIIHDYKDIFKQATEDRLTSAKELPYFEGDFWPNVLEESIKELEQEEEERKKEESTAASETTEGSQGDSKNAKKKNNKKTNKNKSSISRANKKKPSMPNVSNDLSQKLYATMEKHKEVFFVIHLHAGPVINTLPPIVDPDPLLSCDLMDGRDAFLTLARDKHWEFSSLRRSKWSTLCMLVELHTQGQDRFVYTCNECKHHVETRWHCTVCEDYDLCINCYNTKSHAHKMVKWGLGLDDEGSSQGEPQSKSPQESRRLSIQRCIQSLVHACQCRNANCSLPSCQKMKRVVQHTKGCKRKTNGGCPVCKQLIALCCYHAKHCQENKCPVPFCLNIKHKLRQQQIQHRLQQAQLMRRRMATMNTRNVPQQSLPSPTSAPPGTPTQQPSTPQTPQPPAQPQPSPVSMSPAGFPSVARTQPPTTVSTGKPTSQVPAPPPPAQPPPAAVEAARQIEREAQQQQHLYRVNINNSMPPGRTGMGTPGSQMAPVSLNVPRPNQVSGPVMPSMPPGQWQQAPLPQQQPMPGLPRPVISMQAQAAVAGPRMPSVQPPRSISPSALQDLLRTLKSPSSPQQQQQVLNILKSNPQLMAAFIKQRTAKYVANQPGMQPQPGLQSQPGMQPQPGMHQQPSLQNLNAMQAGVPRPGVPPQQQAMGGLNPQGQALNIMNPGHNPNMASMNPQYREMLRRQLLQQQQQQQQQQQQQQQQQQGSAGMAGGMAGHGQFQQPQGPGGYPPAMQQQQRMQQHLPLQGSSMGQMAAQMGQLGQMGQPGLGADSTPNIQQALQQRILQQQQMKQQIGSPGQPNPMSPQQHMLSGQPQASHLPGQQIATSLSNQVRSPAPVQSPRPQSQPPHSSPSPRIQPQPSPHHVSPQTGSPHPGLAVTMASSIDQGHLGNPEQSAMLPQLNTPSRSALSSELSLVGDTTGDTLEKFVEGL

Row | SMILES | IC50 [1] [µM] | IC50 (CREB-binding protein [2]) [µM] | Kd [3] [µM] | Kd (CREB-binding protein [4]) [µM]
1 | COc1ccc(CCc2nc3c(C)c(-c4c(C)noc4C)c(C)cc3n2CCN2CCOCC2)cc1 [ISOX-INACT] | > 120 | 10.6 | – | –
2 | CCCOc1ccc(CCc2nc3cc(-c4c(C)noc4C)ccc3n2CCN2CCOCC2)cc1 [PF-CBP1] | 18.1 | 0.13 | > 20 | 0.19
